According to patent US20060165803A1, “Pharmaceutical compositions of sertaconazole for vaginal use” (priority 2002, published 2006):

What was measured:
[1] = tested on: C. albicans; details: C. albicans (73); cited from earlier work
[2] = tested on: C. tropicalis; details: C. tropicalis (21); cited from earlier work
[3] = tested on: C. glabrata; details: C. glabrata (16); cited from earlier work
[4] = tested on: C. parapsilosis; details: C. parapsilosis (22); cited from earlier work
[5] = tested on: C. krusei; details: C. krusei (13); cited from earlier work
[6] = tested on: C. guillermondii; details: C. guillermondii (5); cited from earlier work
[7] = tested on: reconstituted vaginal epithelial cells; test: In vitro permeation test through reconstituted vaginal epithelium, Franz cell; type: in vitro ADME; details: reconstituted human vaginal epithelium, phosphate buffer pH 7.4, 32° C.
Protocol: The in vitro dissolution and transdermal permeation tests of sertaconazole nitrate from the cream formulations of Example 1 were evaluated in comparison with a conventional cream formulation of 2% sertaconazole nitrate.
Both tests were carried out with Franz cell-type diffusion systems, with a diffusional area of 2.54 cm^2. 1 ml of cream was placed in the donor compartment and 11 ml of a suitable receptor medium were placed in the receptor compartment. For the dissolution test, a 0.45-μm Millipore membrane of nylon esters was used, and the receptor medium was made up of a mixture of ethanol-water (1:1). Vaginal epithelium was used as permeation membrane and phosphate buffer solution at pH 7.4 was used as the receptor medium.
The 4-cm^2 membranes used in the permeation test were formed by reconstituted vaginal epithelial cells (5-day culture) from transformed cells of human vaginal epithelium on polycarbonate support. These cells were obtained from cell lines of vulvar epidermoid carcinomas. The test temperature was 32° C. for both cases.

[8] = tested on: C. albicans; details: against C. albicans; cited from earlier work

## Clc1ccc(COC(Cn2ccnc2)c2ccc(Cl)cc2Cl)cc1 (centres unmarked) [Econazole, econazole]
[1]
  minimum inhibitory concentration (MIC): 2.24
[2]
  minimum inhibitory concentration (MIC): 3.14
[3]
  minimum inhibitory concentration (MIC): 2.39
[4]
  minimum inhibitory concentration (MIC): 0.75
[5]
  minimum inhibitory concentration (MIC): 0.91
[6]
  minimum inhibitory concentration (MIC): 1.11

## Clc1ccc(C(Cn2ccnc2)OCc2csc3c(Cl)cccc23)c(Cl)c1 (centres unmarked) [Sertaconazole, sertaconazole]
[7]
  absorption (permeation) through the vaginal mucosa: less than 0.1 % of the dose
[1]
  minimum inhibitory concentration (MIC): 1.02
[2]
  minimum inhibitory concentration (MIC): 1.67
[3]
  minimum inhibitory concentration (MIC): 0.78
[4]
  minimum inhibitory concentration (MIC): 0.31
[5]
  minimum inhibitory concentration (MIC): 0.38
[6]
  minimum inhibitory concentration (MIC): 0.51
[8]
  fungicide activity compared with imidazole antifungal drugs: superior to most imidazole antifungal drugs

## c1ccc(-c2ccc(C(c3ccccc3)n3ccnc3)cc2)cc1 (centres unmarked) [Bifonazole, bifonazole]
[1]
  minimum inhibitory concentration (MIC): 3.6
[2]
  minimum inhibitory concentration (MIC): 9.51
[3]
  minimum inhibitory concentration (MIC): 4.09
[4]
  minimum inhibitory concentration (MIC): 3.76
[5]
  minimum inhibitory concentration (MIC): 2.20
[6]
  minimum inhibitory concentration (MIC): 3.87
